Test [1] relates to enzyme encoded by SDG8i (SL-UGT). In words: UGT enzyme assay (coupled pyruvate kinase/lactate dehydrogenase, NADH absorbance at 340 nm) with N. benthamiana leaf protein extract expressing SDG8i. Format: biochemical, Sporobolus stapfianus. As to the method:
UGT was produced in N. benthamiana leaf tissue by transient transfection using a viral-based MagnICON vector system (Icon Genetics GmbH, Halle/Salle, Germany).
Briefly, the UGT coding sequence was amplified from the SDG8i cDNA (Le et al., 2007) and ligated into the MagnICON plasmid. The plasmid was then cultured in Escherichia coli DH5α (ATCC Catalog No 53868) and electroporated into Agrobacterium tumefaciens LBA4404). Subsequently, Nicotiana benthamiana leaves were covered in aluminium foil for 3 days before being co-infiltrated with the plasmid and the apoplast-targeting and intergrase modules of the MagnICON system (Marillonnet et al. 2005). Leaves were then harvested 5 days after the co-infiltration and homogenised in ice-cold protein extraction buffer. Following removal of the insoluble material by centrifugation at 13,000 rpm at 4° C. for 5 minutes, protein assays were carried out with Bio-Rad Protein Assay Dye (Bio-Rad Laboratories Inc, Hercules, Calif., United States of America) using bovine serum albumin (BSA) as reference. Protein extracts were analysed by SDS-PAGE using the standard methods described by Sambrook et al. (1989).
UGT activity was measured using a coupled assay with pyruvate kinase and lactate dehydrogenase with the reaction rate monitored by the change in NADH absorbance at 340 nm (Jackson et al. 2001). Activity in millikatals kg^−1 was calculated using the extinction coefficient […] for NADH. The background activity of the extracts, monitored by the measurement of the rate without substrate addition, was subtracted from the reaction rate.
To investigate the catalytic function of the enzyme encoded by the SDG8i cDNA, the glucosyltransferase activity of N. benthamiana leaf protein extracts infiltrated with a CaMV 35S promoter driven SDG8i construct was tested against a number of substrates and compared with activity in extracts infiltrated with a vector-only control. The assay utilised a linked enzymic reaction as described in the Materials and Methods. […]

Another test relates to Orobanche seeds. Kind of test: Orobanche germination assay. Conditions: 0.6 ml aqueous solution 0.0001 mg/1, 7 days at 18-20° C. in the dark; seeds with emerged radicle; water control 11%. Format: in vivo. As to the method: Orobanche seeds were surface sterilised with 2% sodium hypochlorite containing 0.02% (v/v) of polysorbate 20 surfactant (Tween 20™; Sigma-Aldrich Co LLC, St Louis, Mo., United States of America) for 5 min then rinsed (5×) with sterile ddH2O and dried for 30 min in a laminar air flow cabinet. Subsequently, between 50 and 100 seeds were spread on a sterile […] glass fibre disk and placed in petri dishes (9 cm diameter) lined with filter paper wetted with 3 mL of ddH2O. 1 ml of gibberellic acid (GA3) (30 mg/L) was applied to the seeds and the petri dishes then sealed with parafilm and incubated at 18-20° C. in the dark for preconditioning. After 7 days, surface-sterilised seeds of Arabidopsis W/T, SDG8i transgenics, sorghum and & stapfianus were placed on 5 cm glass microfiber disks and incubated on ¼ MS media with 0.5% sugar and 0.8% agar. For controls, 0.6 ml aqueous solution of synthetic strigolactone analog GR24 (Chiralix B.V., Toernooiveld 1006525 EC Nijmegen, The Netherlands) (0.0001 mg/1) or sterile water was applied to petri dishes with preconditioned Orobanche seeds. The plates were then resealed with parafilm and wrapped with foil and incubated at 18-20° C. for 7 days for germination. Orobanche seed germination was determined under a stereoscopic microscope by counting the number of seeds having an emerged radicle.

Test [2] relates to SDG8i promoter-driven GUS reporter (prSDG8i-GUS). In words: Activation of GUS expression driven by prSDG8i in onion epidermal peels. Format: cell-based. Conditions: onion peels containing prSDG8i-GUS construct by itself, MJ added to suspension. An excerpt: The promoter sequence (1660 nt) of SDG8i was placed upstream of the GUS reporter gene in a construct designated prSDG8i-GUS. This construct was transiently co-transformed into onion epidermal peels along with the pMDC32:7y or pMDC32:10y constructs which contained either SDG10y or SDG7y under the transcriptional regulation of the CaMV 35S promoter which is constitutively active in onion cells. The formation of a blue precipitate indicates activation of the SDG8i promoter-driven GUS reporter gene by the SDG10y or SDG7y transcription factor constructs.
Agrobacterium-mediated transient transformation was achieved by immersing onion peels in the Agrobacterium suspensions containing these constructs in 10 mM MES buffer (pH 5.5) and 200 μM acetosyringone at 28° C. in the dark for 2/3 days. A 35S:GUS control construct was included in these experiments and the hormone methyl jasmonate (MJ) was also added to some suspensions. After 2 days, the onion peels were soaked in a GUS staining solution and left at 28° C. in the dark. The onion peels were examined every 2 hours to monitor the formation of blue precipitate.

This is an account of results in patent publication US20170029839A1, “METHOD FOR IMPROVING CROP PRODUCTIVITY” (priority 2013, published 2017).

SMILES strings stand for the structures.

The Km is the concentration of substrate that gives half-maximal velocity. In the case of `CC1=CC(O/C=C2/C(=O)OC3c4ccccc4CC23)OC1=O` (centres unmarked) [GR24], the Km in test [1] (GR24 as substrate of SDG8i extract, FIG. 1B) came to 349 µM. Besides, in test [1] (GR24 as substrate of SDG8i extract, FIG. 1B, method: activity calculated in millikatals kg^-1), the Vmax was 5.67. Moreover, in test [1] (SDG8i extract versus vector-only control, background endogenous NADH oxidase subtracted, FIG. 1A), the glycosylation activity result is reported as “substantial glycosylation activity”. The compound also yielded an Orobanche seed germination in the test with Orobanche seeds of 95%.

As for `CC/C=C\CC1C(=O)CCC1CC(=O)OC` (centres unmarked) [MJ, methyl jasmonate], the GUS activity entry in test [2] is reported as “elevated”.
